In patent publication US20260266848A1, “COMPOSITIONS AND METHODS FOR DIAGNOSING AND TREATING DYSTONIA” (Duke University, priority 2023, published 2026):

System: DYT-TOR1A MEF EVs
Test: Quantitative LC-MS/MS proteomics of EVs from drug-treated DYT-TOR1A MEF cultures (ritonavir, salubrinal)
Format: cell-based, mouse

## O=C(/C=C/c1ccccc1)NC(NC(=S)Nc1cccc2cccnc12)C(Cl)(Cl)Cl (stereo not drawn) [salubrinal]
DYT + Sal/DYT, 20 μM, 24 h
  Acaa1a (ACAA1) EV abundance Cohen's d: −0.1738
  Ano6 (ANO6) EV abundance Cohen's d: 0.1593
  Ap1b1 (AP1B1) EV abundance Cohen's d: −0.5479
  Ar18b (ARL8B) EV abundance Cohen's d: −0.5773
  Bzw2 (BZW2) EV abundance Cohen's d: 0.2815
  Cryab (CRYAB) EV abundance Cohen's d: 1.101
  DIst (DLST) EV abundance Cohen's d: −0.973
  Ehd4 (EHD4) EV abundance Cohen's d: −0.4717
  Flna (FLNA) EV abundance Cohen's d: 0.4828
  Fscn1 (FSCN1) EV abundance Cohen's d: 0.7138
  Gart (GART) EV abundance Cohen's d: 0.6261
  Hist1h1b (H1-5) EV abundance Cohen's d: 0.4792
  Hnrnpc (HNRNPC) EV abundance Cohen's d: −0.5111
  Ipo9 (IPO9) EV abundance Cohen's d: 0.1652
  Jam3 (JAM3) EV abundance Cohen's d: −0.5387
  Lipg (LIPG) EV abundance Cohen's d: 0.6163
  Lrrc59 (LRRC59) EV abundance Cohen's d: 0.4615
  Mapk3 (MAPK3) EV abundance Cohen's d: −0.3187
  Mars (MARS1) EV abundance Cohen's d: −0.2456
  Mrc2 (MRC2) EV abundance Cohen's d: 0.3301
  Myh9 (MYH9) EV abundance Cohen's d: −0.2884
  Ndnf (NDNF) EV abundance Cohen's d: −0.4227
  Pcmt1 (PCMT1) EV abundance Cohen's d: −0.2746
  Pi4ka (PI4KA) EV abundance Cohen's d: 0.7656
  Pitpnb (PITPNB) EV abundance Cohen's d: 0.6644
  Prpsap2 (PRPSAP2) EV abundance Cohen's d: −1.257
  Psmc5 (PSMC5) EV abundance Cohen's d: 1.22
  Psmd12 (PSMD12) EV abundance Cohen's d: 1.234
  Psme4 (PSME4) EV abundance Cohen's d: −0.3917
  Ptma (PTMA) EV abundance Cohen's d: 0.9729
  Rap2b (RAP2B) EV abundance Cohen's d: −0.249
  Rbm3 (RBM3) EV abundance Cohen's d: 0.2607
  Rhoa (RHOA) EV abundance Cohen's d: −0.6572
  Rpl10 (RPL10) EV abundance Cohen's d: −0.3597
  Rpl13a (RPL13A) EV abundance Cohen's d: −0.4797
  Rps13 (RPS13) EV abundance Cohen's d: −0.1409
  Sec31a (SEC31A) EV abundance Cohen's d: −0.2355
  Slc2a1 (SLC2A1) EV abundance Cohen's d: −0.3172
  Stom (STOM) EV abundance Cohen's d: −0.4048
  Tardbp (TARDBP) EV abundance Cohen's d: 0.4522
  Tgfb2 (TGFB2) EV abundance Cohen's d: −0.3293
  Tln1 (TLN1) EV abundance Cohen's d: 0.5665
  Tln2 (TLN2) EV abundance Cohen's d: 0.5488
  Tubb1 (TUBB1) EV abundance Cohen's d: 0.246
  Usp7 (USP7) EV abundance Cohen's d: 1.229
  Wdr26 (WDR26) EV abundance Cohen's d: −0.1895
  Zyx (ZYX) EV abundance Cohen's d: −0.5814
DYT-TOR1A MEF EVs, 20 μM each, 24 h
  Pearson r between ritonavir and salubrinal effects on putative DYT-TOR1A biomarker proteins: 0.47
DYT/DYT + Sal, 20 μM, 24 h
  Acaa1a (ACAA1) EV abundance Cohen's d: −0.1738
  Ano6 (ANO6) EV abundance Cohen's d: 0.1593
  Ap1b1 (AP1B1) EV abundance Cohen's d: −0.5479
  Arl8b (ARL8B) EV abundance Cohen's d: −0.5773
  Bzw2 (BZW2) EV abundance Cohen's d: 0.2815
  Cryab (CRYAB) EV abundance Cohen's d: 1.101
  DIst (DLST) EV abundance Cohen's d: −0.973
  Ehd4 (EHD4) EV abundance Cohen's d: −0.4717
  Flna (FLNA) EV abundance Cohen's d: 0.4828
  Fscn1 (FSCN1) EV abundance Cohen's d: 0.7138
  Gart (GART) EV abundance Cohen's d: 0.6261
  Hist1h1b (H1-5) EV abundance Cohen's d: 0.4792
  Hnrnpc (HNRNPC) EV abundance Cohen's d: −0.5111
  Ipo9 (IPO9) EV abundance Cohen's d: 0.1652
  Jam3 (JAM3) EV abundance Cohen's d: −0.5387
  Lipg (LIPG) EV abundance Cohen's d: 0.6163
  Lrrc59 (LRRC59) EV abundance Cohen's d: 0.4615
  Mapk3 (MAPK3) EV abundance Cohen's d: −0.3187
  Mars (MARS1) EV abundance Cohen's d: −0.2456
  Mrc2 (MRC2) EV abundance Cohen's d: 0.3301
  Myh9 (MYH9) EV abundance Cohen's d: −0.2884
  Ndnf (NDNF) EV abundance Cohen's d: −0.4227
  Pcmt1 (PCMT1) EV abundance Cohen's d: −0.2746
  Pi4ka (PI4KA) EV abundance Cohen's d: 0.7656
  Pitpnb (PITPNB) EV abundance Cohen's d: 0.6644
  Prpsap2 (PRPSAP2) EV abundance Cohen's d: −1.257
  Psmc5 (PSMC5) EV abundance Cohen's d: 1.22
  Psmd12 (PSMD12) EV abundance Cohen's d: 1.234
  Psme4 (PSME4) EV abundance Cohen's d: −0.3917
  Ptma (PTMA) EV abundance Cohen's d: 0.9729
  Rap2b (RAP2B) EV abundance Cohen's d: −0.249
  Rbm3 (RBM3) EV abundance Cohen's d: 0.2607
  Rhoa (RHOA) EV abundance Cohen's d: −0.6572
  Rpl10 (RPL10) EV abundance Cohen's d: −0.3597
  Rpl13a (RPL13A) EV abundance Cohen's d: −0.4797
  Rps13 (RPS13) EV abundance Cohen's d: −0.1409
  Sec31a (SEC31A) EV abundance Cohen's d: −0.2355
  Slc2a1 (SLC2A1) EV abundance Cohen's d: −0.3172
  Stom (STOM) EV abundance Cohen's d: −0.4048
  Tardbp (TARDBP) EV abundance Cohen's d: 0.4522
  Tgfb2 (TGFB2) EV abundance Cohen's d: −0.3293
  Tln1 (TLN1) EV abundance Cohen's d: 0.5665
  Tln2 (TLN2) EV abundance Cohen's d: 0.5488
  Tubb1 (TUBB1) EV abundance Cohen's d: 0.246
  Usp7 (USP7) EV abundance Cohen's d: 1.229
  Wdr26 (WDR26) EV abundance Cohen's d: −0.1895
  Zyx (ZYX) EV abundance Cohen's d: −0.5814
salubrinal
  proteins reduced in both mouse and human EVs whose abundance is modulated toward correction in DYT1 cells (and toward DYT1-like by ISRIB in WT cells): 4 of the 7
